The source of these data is publication PMC12627627 (Nature Communications, 2025).

Holding throughout (format): binding
In one experiment the target is T1, R12 domain of RyR1 (Homo sapiens, UniProt P21817).
T1 construct: RyR1 854–1054, RyR2 865–1065, RyR3 853–1053; made in house; host or cells: E. coli BL21 (DE3)
T1 sequence (P21817 854-1054): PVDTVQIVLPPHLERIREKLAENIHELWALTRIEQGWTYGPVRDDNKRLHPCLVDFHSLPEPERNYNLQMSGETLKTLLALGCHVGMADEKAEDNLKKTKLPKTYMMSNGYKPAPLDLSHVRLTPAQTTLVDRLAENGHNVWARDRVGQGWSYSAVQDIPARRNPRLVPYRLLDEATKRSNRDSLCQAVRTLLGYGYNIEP
In words: ITC, R12 domain of RyR1. The note with it: AMP-PCP or ADP alone, without DAN/AZU (Supplementary Fig. 1). On the procedure: (§1) The plasmids were subsequently transformed into E. coli BL21 (DE3) cells (NEB, USA) and cultured in Luria-Bertani (LB) media at 37 °C. Protein expression was induced with 0.4 mM isopropyl β-D-thiogalactoside (IPTG) when the optical density (OD)600 reached ~0.8, followed by incubation at 18 °C for 12 h. The cells were harvested via centrifugation at 5,000 × g for 15 min at 4 °C and homogenized in Buffer A (10 mM HEPES, pH 7.4, 250 mM KCl) supplemented with 25 µg/mL DNaseI, 25 µg/mL lysozyme, 1 mM phenylmethylsulfonyl fluoride (PMSF), and 20 mM imidazole. The homogenate was centrifuged at 12,000 × g for 45 min, and the supernatant was filtered through a syringe filter (0.22 µm).
(§2) Purified R12 domain protein from the three RyR isoforms, fused with hexahistidine-tagged MBP (HMT-R12) was dialyzed overnight at 4 °C in ITC buffer (200 mM HEPES, pH 7.4, 150 mM KCl). ITC experiments were performed using a PEAQ-ITC instrument (Malvern, UK) at 25 °C with a stirring speed of 750 rpm. […] For the ternary binding experiments, 500 μM or 5 mM AMP-PCP/ADP was preincubated with both the titrants and titrates. […] The data was fit to a one-site fitting model after background buffer subtraction. The RyR1 R12 mutants were generated using a QuikChange mutagenesis kit (Stratagene) according to the manufacturer’s protocol, with primer sequences listed in Supplementary Table 3.
(In ITC the heat of successive injections is recorded.)

In the next experiment the target is T2, R12 domain of RyR3 (Homo sapiens, UniProt Q15413).
T2 construct: RyR1 854–1054, RyR2 865–1065, RyR3 853–1053; made in house; host or cells: E. coli BL21 (DE3)
T2 sequence (Q15413 853-1053): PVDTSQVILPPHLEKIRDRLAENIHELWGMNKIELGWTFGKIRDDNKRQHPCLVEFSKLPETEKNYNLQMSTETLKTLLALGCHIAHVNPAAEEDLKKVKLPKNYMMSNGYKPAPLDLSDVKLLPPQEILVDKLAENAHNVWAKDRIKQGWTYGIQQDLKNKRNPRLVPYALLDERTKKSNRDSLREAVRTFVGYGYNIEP
Nature of the experiment: ITC, R12 domain of RyR3. On the procedure: as §1, §2

In the next experiment the target is T3, R12 domain of RyR2 (Homo sapiens, UniProt Q92736).
T3 construct: RyR1 854–1054, RyR2 865–1065, RyR3 853–1053; made in house; host or cells: E. coli BL21 (DE3)
T3 sequence (Q92736 865-1065): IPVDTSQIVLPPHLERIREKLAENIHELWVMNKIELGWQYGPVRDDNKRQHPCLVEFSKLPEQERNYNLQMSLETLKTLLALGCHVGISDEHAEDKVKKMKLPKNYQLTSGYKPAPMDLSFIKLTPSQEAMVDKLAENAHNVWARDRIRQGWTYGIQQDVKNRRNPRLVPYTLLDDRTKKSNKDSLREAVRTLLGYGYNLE
Nature of the experiment: ITC, R12 domain of RyR2. The note with it: absence or presence of AMP-PCP or ADP. The method, then: as §1, §2

SMILES strings stand for the structures.

Broadly, the Kd is a measure of binding affinity in units of concentration.

With `Nc1ncnc2c1ncn2[C@@H]1O[C@H](COP(=O)(O)OP(=O)(O)CP(=O)(O)O)[C@@H](O)[C@H]1O` [AMP-PCP], the “binding of nucleotide alone by ITC” value on R12 domain of RyR1 was “did not exhibit detectable binding”.

In the case of `Nc1ncnc2c1ncn2[C@@H]1O[C@H](COP(=O)(O)OP(=O)(O)O)[C@@H](O)[C@H]1O` [ADP], at R12 domain of RyR1, the “binding of nucleotide alone by ITC” value is given as “did not exhibit detectable binding”.

As to `O=C1CN(/N=C/c2ccc(-c3ccc([N+](=O)[O-])cc3)o2)C(O)=N1` [DAN, Dantrolene], the Kd on R12 domain of RyR3 (RyR3 R12 + 500 µM ADP) was determined as 259 ± 31 nM; on R12 domain of RyR3 (RyR3 R12 + 500 µM AMP-PCP) it was 72 ± 20 nM; at R12 domain of RyR3 (RyR3 R12 + 5 mM ADP), 60 ± 9 nM; on R12 domain of RyR3 (RyR3 R12 + 5 mM AMP-PCP) it was 26 ± 10 nM; on R12 domain of RyR3 (RyR3 R12, no nucleotide, ITC 25 °C), 235000 ± 122000 nM. Also, the “No of Sites (N)” value at R12 domain of RyR3 (RyR3 R12 + 500 µM ADP) is 0.461 ± 0.26; at R12 domain of RyR3 (RyR3 R12 + 500 µM AMP-PCP) it was 0.726 ± 0.53; at R12 domain of RyR3 (RyR3 R12 + 5 mM ADP) it was 0.606 ± 0.23; at R12 domain of RyR3 (RyR3 R12 + 5 mM AMP-PCP), 0.842 ± 0.36; on R12 domain of RyR3 (RyR3 R12, no nucleotide), 0.651 ± 0.11. Also, the ΔH was -5.53 ± 0.34 kcal/mol on R12 domain of RyR3 (RyR3 R12 + 500 µM ADP); -8.63 ± 0.14 kcal/mol on R12 domain of RyR3 (RyR3 R12 + 500 µM AMP-PCP); -8.21 ± 0.75 kcal/mol at R12 domain of RyR3 (RyR3 R12 + 5 mM ADP); -8.07 ± 0.10 kcal/mol at R12 domain of RyR3 (RyR3 R12 + 5 mM AMP-PCP); -80 kcal/mol at R12 domain of RyR3 (RyR3 R12, no nucleotide). Also, the “−TΔS” value at R12 domain of RyR3 (RyR3 R12 + 500 µM ADP) was -3.46 kcal/mol; at R12 domain of RyR3 (RyR3 R12 + 500 µM AMP-PCP) it was -1.11 kcal/mol; at R12 domain of RyR3 (RyR3 R12 + 5 mM ADP) it was -1.64 kcal/mol; at R12 domain of RyR3 (RyR3 R12 + 5 mM AMP-PCP) it was -2.27 kcal/mol; on R12 domain of RyR3 (RyR3 R12, no nucleotide), 75.60 kcal/mol. For the same compound, the “binding to RyR2 R12 domain by ITC” value at R12 domain of RyR2 was “neither DAN nor AZU exhibited detectable binding”.
